Data taken from patent US12433870B2, “Supramolecular photoprotection of a photosensitizer” (Northwestern University, priority 2019, dated 2025).
Entries after “also recorded” stand apart in the source; their conditions may differ.

Experiments:
[1] = system: A2780 cells; assay: Cellular uptake studies by flow cytometry (MFI); assay type: cell-based, human; details: 10 μM, 30 min to 12 h
Method: A2780 cells (5×10^5 cells/mL, 200 μL) were seeded in each well of a 48-well plate and treated with 10 μM PBS solution of ExBox^4+⊃DPP for 30 min, 1 h, 2 h, 6 h, and 12 h. Cells were washed with PBS, trypsinized, and incubated with 50 μL of 1:100 Zombie Aqua fixable cell viability dye for 15 min at 4° C. After incubation, cells were washed with 600 μL PBS, spun at 400 ref for 5 min, and the supernatant was discarded. Cells were then suspended in 100 μL of 2% paraformaldehyde prior to being analyzed using a BD Fortessa flow cytometer. Cells were first gated for singlet events using FSC-A vs. FSC-H, after which debris was excluded used FSC-A vs. SSC-A. Cells gated as Zombie Aqua low were considered live cells, which were then analyzed for their median fluorescence intensity (MFI) in the PE-Cy5 channel for ExBox^4+⊃DPP fluorescence, representing the amount of ExBox^4+⊃DPP taken up by each cell.

[2] = Detection of singlet oxygen (ADPA chemical method, methylene blue reference); assay type: physicochemical; details: H2O, 20 μM, 630 nm, 50 mW, 20 min
Method: Singlet oxygen (^1O2) quantum-yield measurements were conducted by a chemical method. The disodium salt of 9.10-anthracenedipropionic acid (ADPA) was used as singlet oxygen detection reagent with methylene blue used as a reference (Φt=0.53). In this experiment, ADPA (0.1 μmol) was added to the H2O solution of ExBox^4+⊃DPP (20 μM) with a laser irradiation (630 nm, 50 mW) for 20 min, followed by quantification of ^1O2 by the absorbance intensity change (UV-3600 Shimadzu spectrophotometer) at 380 nm of ADPA. The calculation of ^1O2 quantum yield is based on the equality ΦΔ=(ΔAs/[…])Φr. ΔAs is the absorption change of detected photosensitizer, ΔAr is the absorption change of referenced photosensitizer and Φ^r is the quantum yield of singlet oxygen of referenced photosensitizer (methylene blue).
(§1) ADPA (0.1 μmol) was added to the H2O solution of DPPH2^+ (20 μM) with a laser irradiation (630 nm, 50 mW) for 20 min, followed by quantification of the ^1O2 by the absorbance intensity change (UV-3600 Shimadzu spectrophotometer) at 380 nm of ADPA. The calculation of the ^1O2 quantum yield is based on the equality ΦΔ=(ΔAs/ΔAr)Φr where ΔAs is the absorption change of detected photosensitizer, ΔAr is the absorption change of referenced photosensitizer and Φr is the quantum yield of singlet oxygen of referenced photosensitizer (methylene blue). Measured ^1O2 quantum yield of DPPH2^2+ is 0.38 in H2O.
as §1, with “acetone” for “H2O”, “DPP” for “DPPH2^+”, “DPP” for “DPPH2^2+”, “0.43” for “0.38”, “acetone.” for “H2O.”

[3] = system: A2780 cells; assay: Calcein-AM/Ethidium homodimer-1 live-dead assay; assay type: cell-based, human; details: 10 μM
Method: (§2) A2780 cells (1×10^5 cells/mL, 300 μL) were plated in each well of an 8-well μ-slide (ibidi cell focus) and cultured overnight. PBS solution of ExBox^4+⊃DPP was added to each well and incubated for predetermined time points. For cellular co-localization studies, cells were washed with phenol free DMEM and stained with LysoTracker green (lysosome stain, 1:1000 dilution) or MitoSpy™ Green FM (mitochondria stain, 1:2000 dilution) or NucBlue™ Live ReadyProbes™ Reagent (nuclei stain, 1 drop). For the live-dead assay, cells were incubated with PBS solution of ExBox^4+⊃DPP irradiated for 10 min at […] light intensity, incubated overnight, and stained with Calcein AM (2 μM) and Ethidium homodimer-1 (4 μM). Plated cells were imaged within a humidified chamber using a 63× oil-immersion objective on a SP5 Leica Confocal Microscope using HyD detectors and lasers.

[4] = system: A2780 cells; assay: Annexin V FITC/7-AAD apoptosis assay; assay type: cell-based; details: for intact cells: dark conditions
Method: A2780 cells (5×10^5 cells/mL, 100 μL) were seeded in each well of a Black 96-well plate and incubated with 5 or 10 μM PBS solution of ExBox^4+⊃DPP for 12 h. After incubation, cells were washed with 1×PBS, added with 100 μL of DMEM and immediately irradiated with visible light using Max-303 Xenon Light Source (385-740 nm, Asahi Spectra) at 25 and 50 mW light intensities for 10 min. After irradiation, cells were incubated for an additional 3 h prior to being trypsinized and recovered for annexin V staining. 50 μL of Annexin V solution (1:50 FITC Annexin V in Annexin V staining buffer) was added to cells and was incubated at room temperature for 20 min. 500 μL of 1×PBS was then added to cells, which were centrifuged at 400 ref for 5 min, and the supernatant was discarded. Cells were resuspended in 100 μL of 1:20 7-AAD in cell staining buffer and were incubated for 10 min prior to analysis on a BD Fortessa flow cytometer. Cells were first gated for singlet events using FSC-A vs. FSC-H, after which debris was excluded used FSC-A vs. SSC-A. All remaining events were gated as live, dead, or apoptotic based on annexin V staining vs. 7-AAD staining, with dead cells staining 7-AAD+, live cells staining as 7-AAD- and annexin-V-, and apoptotic cells staining 7-AAD-annexin-V+. Cells without irradiation were used as controls.

[5] = system: A2780 cells; assay: Live cell confocal microscopy, cellular uptake and co-localization; assay type: cell-based, human
Method: as §2

[6] = Solubility in water / PBS buffer; assay type: physicochemical; details: H2O

With `C1=Cc2nc1cc1ccc([nH]1)c(-c1ccccc1)c1nc(cc3ccc([nH]3)c2-c2ccccc2)C=C1.c1cc2ccc1C[n+]1ccc(cc1)-c1ccc(cc1)-c1cc[n+](cc1)Cc1ccc(cc1)C[n+]1ccc(cc1)-c1ccc(cc1)-c1cc[n+](cc1)C2` [ExBox^4+⊃DPP] the “uptake and DPP fluorescence signal (MFI)” value [1] was “time-dependent increase”, the “singlet oxygen generation upon photoexcitation” value [2] was “did not generate any singlet oxygen; also recorded: ^1O2 was not generated” and the live-dead staining ([3]; 0.156 J cm^−2 light dose for 10 min) was “red fluorescence”. For the same compound, the live-dead staining ([3]; dark conditions) was “bright green fluorescence”, the intact cells ([4]; 5 μM) was 79% and the apoptotic cells ([4]; 10 μM versus 5 μM, 0.078 or 0.156 Jcm^−2 light dose, 3 h post irradiation) was “a smaller number of apoptotic cells”. For the same compound, the intact cells ([4]; 10 μM) was 72%, the “cell injury under continuous irradiation (real-time confocal)” value ([5]; 5 min continuous irradiation, 25 mW) was “showed blebs on their surface” and the “lysosomal co-localization (lysotracker)” value ([5]; 1 h incubation) was “no lysosomal co-localization”. The “mitochondrial internalization (mitospy)” value ([5]; 12 h incubation, 10 μM) was “no mitochondrial internalization”, the “lysosomal co-localization (lysotracker)” value ([5]; incubation time up to 12 h) was “co-localization of DPP with the green fluorescence of lysotracker was detected” and the “lowest concentration traceable as punctate inside cells” value ([5]; red laser excitation, 12 h incubation) was 0.1. For the same compound, the “solubility in H2O” value [6] was “soluble in H2O”.
